{"source": "paper PMC6452631", "about": "(Journal of medicinal chemistry, 2017)", "key": {"hTG2 [1]": {"molecular_target": "T1, hTG2 (Homo sapiens, UniProt P21980)", "T1 sequence (P21980 1-687)": "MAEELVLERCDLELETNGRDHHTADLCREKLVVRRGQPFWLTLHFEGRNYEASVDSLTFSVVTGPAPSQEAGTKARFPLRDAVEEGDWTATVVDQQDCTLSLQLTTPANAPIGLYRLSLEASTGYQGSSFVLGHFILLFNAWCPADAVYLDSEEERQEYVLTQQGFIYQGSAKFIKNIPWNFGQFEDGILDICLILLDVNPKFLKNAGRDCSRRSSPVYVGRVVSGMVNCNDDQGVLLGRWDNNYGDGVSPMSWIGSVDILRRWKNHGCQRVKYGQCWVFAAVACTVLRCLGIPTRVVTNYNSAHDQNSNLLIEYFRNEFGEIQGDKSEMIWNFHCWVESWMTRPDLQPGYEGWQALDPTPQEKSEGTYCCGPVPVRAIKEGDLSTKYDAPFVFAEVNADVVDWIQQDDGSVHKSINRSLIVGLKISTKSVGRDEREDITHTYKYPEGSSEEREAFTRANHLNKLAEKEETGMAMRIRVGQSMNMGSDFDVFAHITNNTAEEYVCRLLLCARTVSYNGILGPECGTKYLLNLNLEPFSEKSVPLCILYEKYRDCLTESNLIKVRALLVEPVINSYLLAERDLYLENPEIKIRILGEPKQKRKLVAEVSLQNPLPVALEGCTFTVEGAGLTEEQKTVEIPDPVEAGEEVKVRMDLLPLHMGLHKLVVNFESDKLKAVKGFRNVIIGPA", "details": "pH 6.5"}, "hTG2 [2]": {"molecular_target": "T1, hTG2", "test": "Colorimetric transamidase activity assay"}, "[3]": {"system": "epidermal cancer stem (ECS) cells", "details": "cited from earlier work"}, "gplTG2": {"system": "gplTG2", "details": "cited from earlier work; for K1 values: gplTG2, in words"}, "[4]": {"system": "epidermal cancer stem (ECS) cells (SCC-13)", "test": "Cell invasion assay", "assay_type": "cell-based, human"}, "[5]": {"system": "mouse xenograft tumors initiated by injection of cancer stem cells", "details": "intraperitoneal injection, 20 mg/kg; cited from earlier work"}, "hTG2 [6]": {"molecular_target": "T1, hTG2", "test": "In vitro GTP binding assay", "details": "inhibitor at 2KI, 30 min, 25 °C; 3 μM BODIPY GTP-γ-S"}, "hTG2 [7]": {"molecular_target": "T1, hTG2", "test": "Inhibition irreversibility", "assay_type": "biochemical", "details": "compared to uninhibited hTG2"}}, "note": "Peptide text beside a SMILES is read from it. * marks the point of attachment. Cbz = O=C(OCc1ccccc1)*; Acryloyl = C=CC(=O)*", "data": [{"smiles": "C=CC(=O)NCCCC[C@H](NC(=O)OCc1ccccc1)C(=O)N1CCOCC1", "note": "[Compound 59]", "values": [{"measurement": "kinact", "setting": "hTG2 [1]", "value": 0.0245, "unit": "s⁻¹"}]}, {"smiles": "C=CC(=O)NCCCC[C@H](NC(=O)OCc1ccccc1)C(=O)NCCOCCOCCNS(=O)(=O)c1cccc2c(N(C)C)cccc12", "note": "[Compound 3, (S)-Benzyl-(1-((5-(dimethylamino)naphthalene)-1-sulfonamido)-10,17-dioxo-3,6-dioxa-9,16-diazanonadec-18-en-11-yl)carbamate]", "values": [{"measurement": "increase in overall efficiency (kinact/KI), hTG2 versus gplTG2", "setting": "hTG2 [2]; hTG2 compared to gplTG2", "value": 5, "unit": "fold"}, {"measurement": "ECS cell proliferation and survival", "setting": "[3]; 20 μM", "value": "reduced ECS cell proliferation and survival"}, {"measurement": "effect in TG2 knockout ECS cells", "setting": "[3]; TG2 knockout ECS cells", "value": "no effect"}, {"measurement": "kinact", "setting": "gplTG2; gplTG2", "value": 0.483, "unit": "min⁻¹"}, {"measurement": "EC50", "setting": "[4]; Homo sapiens, SCC-13, 18 h, read-out: EC50, inhibition of ECS cell invasion", "value": "> 20", "unit": "µM"}, {"measurement": "growth of mouse xenograft tumors", "setting": "[5]", "value": "reduced the growth"}]}, {"smiles": "C=CC(=O)NCCCC[C@H](NC(=O)OCc1ccccc1)C(=O)NCC(=O)O", "note": "[Compound 2, (S)-2-(6-Acrylamido-2-(((benzyloxy)carbonyl)amino)-hexanamido)acetic Acid] (Cbz-Lys(Acryloyl)-Gly-OH)", "values": [{"measurement": "K1 values", "setting": "gplTG2", "value": "high nanomolar range"}, {"measurement": "efficiency constants (kinact/KI)", "setting": "gplTG2; gplTG2", "value": "10^6 M^−1 min^−1"}]}, {"smiles": "C=CC(=O)NCCCC[C@H](NC(=O)OCc1ccccc1)C(=O)N1CCN(S(=O)(=O)c2cccc3c(N(C)C)cccc23)CC1", "note": "[Compound 13, (S)-Benzyl (6-Acrylamido-1-(4-((5-(dimethylamino)naphthalen-1-yl)sulfonyl)piperazin-1-yl)-1-oxohexan-2-yl)carbamate]", "values": [{"measurement": "kinact/KI", "setting": "hTG2 [2]", "value": "> 1670", "unit": "M⁻¹ s⁻¹"}, {"measurement": "reduction in the inhibition binding constant compared to 3", "setting": "hTG2 [2]; hTG2", "value": "greater than 2 fold"}, {"measurement": "Hill slope", "setting": "[4]; three-parameter sigmoidal fit of invasion data, maximum fixed at 100", "value": "1.16 ± 0.13"}, {"measurement": "GTP binding ability of hTG2 after incubation with inhibitor", "setting": "hTG2 [6]", "value": "abolishing GTP binding nearly completely"}, {"measurement": "recovered hTG2 activity after filtration (10 kDa cutoff) and dilution", "setting": "hTG2 [7]", "value": "no recovered activity"}]}, {"smiles": "C=CC(=O)NCCCC[C@H](NC(=O)OCc1ccccc1)C(N)=O", "note": "[Compound 4, (S)-Benzyl-(6-acrylamido-1-amino-1-oxohexan-2-yl)carbamate]", "values": [{"measurement": "GTP binding ability of hTG2 after incubation with inhibitor", "setting": "hTG2 [6]", "value": "able to abolish GTP binding"}]}, {"smiles": "C=CC(=O)NCCCC[C@H](NC(=O)OCc1ccccc1)C(=O)N1CCN(C(=O)c2cccc3ccccc23)CC1", "note": "[Compound 49, (S)-Benzyl (1-(4-(1-Naphthoyl)piperazin-1-yl)-6-acrylamido-1-ox-ohexan-2-yl)carbamate]", "values": [{"measurement": "kinact/KI", "setting": "hTG2 [2]", "value": "> 1670", "unit": "M⁻¹ s⁻¹"}, {"measurement": "GTP binding ability of hTG2 after incubation with inhibitor", "setting": "hTG2 [6]", "value": "abolishing GTP binding nearly completely"}]}, {"smiles": "C=CC(=O)NCCCC[C@H](NC(=O)OCc1ccccc1)C(=O)N1CCN(S(=O)(=O)c2cccc3ccccc23)CC1", "note": "[Compound 30, (S)-Benzyl 6-Acrylamido-1-(4-(naphthalen-1-ylsulfonyl)piperazin-1-yl)-1-oxohexan-2-yl-carbamate]", "values": [{"measurement": "kinact less than that of 13", "setting": "hTG2 [2]; hTG2", "value": "more than 3 fold"}]}, {"smiles": "NC(=O)CI", "note": "[iodoacetamide, reference compound]", "values": [{"measurement": "inhibition of hTG2 acyltransferase activity", "setting": "hTG2 [2]; in words", "value": "irreversible inhibition"}, {"measurement": "GTP binding ability of hTG2 after incubation with inhibitor", "setting": "hTG2 [6]", "value": "did not perturb its GTP-binding ability"}]}, {"smiles": "C=CC(=O)NCCCC[C@H](NC(=O)OCc1ccccc1)C(=O)O", "note": "[Compound 1, (S)-6-Acrylamido-2-(((benzyloxy)carbonyl)amino)hexanoic Acid]", "values": [{"measurement": "K1 values", "setting": "gplTG2", "value": "high nanomolar range"}]}]}
